Experimental data reported in PubChem BioAssay (NCI).
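The compound was tested at five concentrations on cells cultured in 96-well plates, with a 48-hour exposure period. GI50 = concentration required for 50% inhibition of growth. The concentration for full growth arrest is given as TGI.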

Key:
Test in all cases: NCI-60 cell line screen, 48 h
[1] = tested on: A498 renal
[2] = tested on: CAKI-1 renal
[3] = tested on: COLO 205 colon
[4] = tested on: IGROV1 ovarian
[5] = tested on: K-562 leukemia
[6] = tested on: KM12 colon
[7] = tested on: M14 melanoma
[8] = tested on: SK-MEL-2 melanoma
[9] = tested on: SNB-75 CNS
[10] = tested on: SR leukemia

| SMILES | TGI [1] [µM] | TGI [2] [µM] | TGI [3] [µM] | TGI [4] [µM] | TGI [5] [µM] | TGI [6] [µM] | TGI [7] [µM] | TGI [8] [µM] | TGI [9] [µM] | GI50 [1] [µM] | GI50 [2] [µM] | GI50 [3] [µM] | GI50 [4] [µM] | GI50 [5] [µM] | GI50 [6] [µM] | GI50 [7] [µM] | GI50 [8] [µM] | GI50 [9] [µM] | GI50 [10] [µM] | TGI [10] [µM] |
| --- | --- | --- | --- | --- | --- | --- | --- | --- | --- | --- | --- | --- | --- | --- | --- | --- | --- | --- | --- | --- |
| N#C/C(=C\c1ccccc1O)C(N)=O | > 100 | > 100 | > 100 | > 100 | > 100 | > 100 | > 100 | > 100 | 69.7 | – | – | – | – | – | – | – | – | – | – | – |
| COc1ccc2c(c1)C(=O)c1c-2n(CCCN)c(=O)c2ccccc12 | 2.21 | 0.251 | 0.807 | 0.689 | 0.187 | 0.0784 | 1.53 | 2.67 | 1.54 | 0.836 | < 0.0468 | < 0.0318 | < 0.0138 | < 0.01 | 0.0144 | 0.0951 | 0.82 | 0.0151 | – | – |
| CC/C(Cc1ccccc1)=C(\c1ccc(OCCN2CCCCCC2)cc1)c1ccc(OC(=O)NCc2ccccc2)cc1 | – | 10.5 | 1.99 | 8.82 | 2.33 | 5.49 | 2.55 | 17.7 | 13.2 | – | 4.52 | 1.01 | 2.31 | 0.898 | 1.61 | 1.06 | 8.65 | 6.09 | 0.821 | 2.2 |
| COc1ccc(C#Cc2ccccc2C#CCCCCO)cc1 | 66.4 | 40.3 | 33.4 | 34.1 | 43.9 | 33.4 | 36.2 | 38.9 | 38.9 | 24.1 | 22.3 | 17.6 | 18.8 | 21.9 | 17.7 | 19.4 | 19.8 | 18.4 | – | – |
| CN1C(=O)c2c(ccc3c2OCO3)C2C(O)Cc3cc4c(cc3C21)OCO4 (stereo not drawn) | 9.29 | 81.7 | 14.4 | 8.85 | 60.2 | 21.6 | > 100 | 8.44 | 5.13 | – | – | – | – | – | – | – | – | – | – | – |
| COc1cccc([C@H]2CC(=O)c3cc4c(cc3N2)OCO4)c1 | > 100 | > 100 | 1.22 | – | – | 1.25 | – | – | > 100 | 0.265 | 0.151 | 0.0367 | – | – | 0.0336 | 0.0864 | – | – | – | – |
| O=[N+]([O-])c1ccc(Nc2ccccc2-c2ccccc2)c2nonc12 | 41.6 | 50.2 | 45.2 | > 63.6 | > 100 | 32.5 | 30.6 | 20.3 | 36.6 | 14.8 | 12.3 | 18.6 | 12 | 18 | 13.9 | 13.3 | 6.16 | 13.6 | – | – |
| [O-]/[N+](=C\c1ccccc1)[C@H](COCc1ccccc1)c1ccccc1 | > 100 | – | > 100 | > 100 | > 100 | > 100 | – | > 100 | > 100 | – | – | – | – | – | – | – | – | – | – | – |
| CCSc1nnc2c(-c3ccccc3)n[nH]c2n1 | – | > 100 | > 100 | > 100 | > 100 | > 100 | > 100 | > 100 | > 100 | – | – | – | – | – | – | – | – | – | – | > 100 |
| N=C(c1ccccc1)N(c1ccccc1)c1ccccc1 | – | > 100 | > 100 | – | – | > 100 | > 100 | > 100 | > 100 | – | – | – | – | – | – | – | – | – | – | > 100 |
| CCC1(C)NN=c2s/c(=C/c3ccc(OC)cc3)c(=O)n2N1 (stereo not drawn) | – | > 100 | > 100 | > 100 | > 100 | > 100 | > 100 | > 100 | > 100 | – | – | – | – | – | – | – | – | – | – | > 100 |
| NS(=O)(=O)c1ccc(NC(=O)c2ccc(NC3=C(Cl)C(=O)N(Cc4ccccc4)C3=O)cc2)cc1 | 32.6 | 29.3 | > 100 | > 100 | > 100 | > 100 | 34.6 | – | – | 14.9 | 14.8 | 15.1 | 3 | 3.26 | 48.7 | 12 | – | – | – | – |
| CC1=C([Se]CC(OC(=O)[C@@H](CSSC(C)(C)C)NC(=O)OC(C)(C)C)C(=O)NC(C)(C)C)C(=O)c2ccccc2C1=O (stereo partly drawn) | 3.83 | 3.02 | 3.15 | 2.36 | 2.62 | 2.51 | 2.58 | 2.88 | 2.59 | 1.42 | 1.66 | 1.67 | 1.15 | 1.28 | 1.26 | 1.26 | 1.47 | 1.3 | – | – |
| COc1cc(C(=O)OCCCCCCCCCCC[P+](c2ccccc2)(c2ccccc2)c2ccccc2)ccc1O | 5.23 | 3.18 | 3.06 | – | – | – | 1.45 | 1.88 | – | 1.84 | 1.64 | 1.49 | – | – | – | 0.349 | 0.522 | – | 0.364 | 2.31 |
| CCC(C)CN1C(=O)NC(C)(Cc2ccccc2)C1=O (stereo not drawn) | – | > 100 | > 100 | – | – | > 100 | > 100 | > 100 | > 100 | – | – | – | – | – | – | – | – | – | – | > 100 |
| O=C1c2ccccc2C2(O)Nc3cc(O)ccc3C12O (stereo not drawn) | > 100 | > 100 | > 100 | > 100 | > 100 | > 100 | > 100 | > 100 | > 100 | – | – | – | – | – | – | – | – | – | – | – |
| CCOc1ccc(NC(=O)CC2SC(=Nc3ccc(Cl)cc3)NC2=O)cc1 (stereo not drawn) | > 100 | 48.8 | > 100 | > 100 | 76.4 | > 100 | > 100 | > 100 | > 100 | – | – | – | – | – | – | – | – | – | – | – |
| C=CCC1OC(C)(C)Oc2ccc(OCOCCOC)cc21 (stereo not drawn) | > 100 | > 100 | – | > 100 | > 100 | > 100 | > 100 | > 100 | > 100 | – | – | – | – | – | – | – | – | – | – | – |
| COc1cc2c(cc1O)C=NCC2 | > 100 | > 100 | > 100 | > 100 | > 100 | > 100 | > 100 | > 100 | > 100 | – | – | – | – | – | – | – | – | – | – | – |
